Data published in ChEMBL document CHEMBL1127993, “4-[5-(2,3-dihydroxyphenyl)pentyloxy]-2-hydroxy-3-propylbenzoic acid (Ro 24-0553): an orally active 5-lipoxygenase inhibitor with antiinflammatory activity” (Bioorg Med Chem Lett, 1994).
pIC50: −log10 of the molar value. Active and inactive are the calls of the source. No cut-off for these calls is given here.

Key:
[1] = target: T1, Polyunsaturated fatty acid 5-lipoxygenase (Rattus norvegicus, UniProt P12527); test: Inhibition of 5-lipoxygenase from rat basophilic leukemia(RBL-1) cells; assay type: cell-based
T1 sequence (P12527 whole entry): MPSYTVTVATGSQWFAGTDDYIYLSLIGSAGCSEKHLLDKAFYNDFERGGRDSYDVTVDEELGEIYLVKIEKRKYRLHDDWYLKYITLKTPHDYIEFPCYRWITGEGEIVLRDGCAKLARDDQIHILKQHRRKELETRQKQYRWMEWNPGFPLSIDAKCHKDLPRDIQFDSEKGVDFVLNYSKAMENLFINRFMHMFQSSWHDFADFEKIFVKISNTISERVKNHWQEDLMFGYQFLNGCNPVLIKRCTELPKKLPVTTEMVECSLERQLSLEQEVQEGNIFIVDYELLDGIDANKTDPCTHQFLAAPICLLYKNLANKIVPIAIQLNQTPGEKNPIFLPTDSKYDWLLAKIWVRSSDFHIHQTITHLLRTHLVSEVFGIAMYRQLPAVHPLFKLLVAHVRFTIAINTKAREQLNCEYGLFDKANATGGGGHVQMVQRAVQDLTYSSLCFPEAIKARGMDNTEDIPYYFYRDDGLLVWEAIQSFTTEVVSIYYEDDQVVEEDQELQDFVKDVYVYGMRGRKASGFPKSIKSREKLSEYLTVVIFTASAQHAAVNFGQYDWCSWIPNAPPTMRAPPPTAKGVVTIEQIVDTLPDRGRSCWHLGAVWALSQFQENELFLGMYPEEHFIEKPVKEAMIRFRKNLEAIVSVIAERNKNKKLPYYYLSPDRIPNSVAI

Rattus norvegicus [2] = test: In vivo inhibitory activity against acetic acid-induced colitis of rat at 10 mg/kg upon peroral administration; assay type: functional; details: route oral
Rattus norvegicus [3] = organism: Rattus norvegicus; test: Inhibitory activity against peroxidation of rat cardiac membrane liposomes at 1 uM concentration; assay type: functional; details: Microsome
Rattus norvegicus [4] = organism: Rattus norvegicus; test: Inhibitory activity against peroxidation of rat cardiac membrane liposomes; assay type: functional
Mus musculus [5] = organism: Mus musculus; test: Myeloperoxidase activity was determined as a measure of neutrophil infiltration at a 0.1 mg dose in the AA treated mice; assay type: functional
Mus musculus [6] = organism: Mus musculus; test: Myeloperoxidase activity was determined as a measure of neutrophil infiltration at the 0.4 mg dose in the TPA treated mice; assay type: functional
Mus musculus [7] = test: Inhibition of the AA-induced edema in mouse ear inflammation test at 1 mg; assay type: functional
Mononuclear cell line = test: In vitro inhibitory activity against interleukin-1-beta biosynthesis by isolated human mononuclear cells at 10 uM; assay type: functional
Rattus norvegicus [8] = organism: Rattus norvegicus; test: Inhibition of LTB4 biosynthesis in ionophore-stimulated rat peritoneal macrophages; assay type: functional
Rattus norvegicus [9] = organism: Rattus norvegicus; test: Inhibition of PGE-2 biosynthesis in ionophore stimulated rat peritoneal macrophages; assay type: functional
Rattus norvegicus [10] = test: In vivo inhibitory activity against acetic acid-induced colitis of rat at 1 mg/kg upon peroral administration; assay type: functional; details: route oral
Rattus norvegicus [11] = test: Percent reduction of neutrophil accumulatiom with an minimum effective dose of 100 ug/kg when administered orally twice daily for two days before induction of acetic acid-induced colitis in the rat; assay type: functional
Rattus norvegicus [12] = test: Percent reduction of neutrophil accumulatiom with an minimum effective dose of 1 mg/kg when administered orally twice daily for two days before induction of acetic acid-induced colitis in the rat; assay type: functional; details: route oral
Rattus norvegicus [13] = test: Reduction of erythema at 1 mg/kg in acetic acid-induced colitis of the rat; assay type: functional
Rattus norvegicus [14] = test: Reduction of necrosis at 1 mg/kg in acetic acid-induced colitis of the rat; assay type: functional
Mus musculus [15] = test: Inhibition of the TPA-induced edema in mouse ear inflammation test at a topical dose of 0.4 mg; assay type: functional
Homo sapiens [16] = organism: Homo sapiens; test: Inhibition of LTB4 biosynthesis in human neutrophils
Homo sapiens [17] = organism: Homo sapiens; test: Inhibitory activity against interleukin-1 production by LPS-stimulated human monocytes; IC50 range=4-8 uM; assay type: functional
Rattus norvegicus [18] = test: Inhibition of neutrophil infiltration at 100 mg/kg in rats; assay type: functional
Rattus norvegicus [19] = test: Inhibitory activity in rat colitis model at an oral dose of 10 mg/kg; IA means inactive; assay type: functional, organism-based; set-up: dose 10 mg/kg

Compound | pIC50 [1] | pIC50 (Rattus norvegicus [4]) | inhibition in vivo at 10 mg/kg (Rattus norvegicus [2]) [%] | inhibition (Rattus norvegicus [3]) [%] | other results
O=C(O)c1ccc(OCCCCCCc2cccc(O)c2O)cc1 | 6.70 | – | 89 | 9 | –
CCCc1c(OCCCCCCCCCCc2cccc(O)c2O)ccc(C(=O)O)c1O | – | 6.40 | – | – | –
CCCc1c(OCCc2cccc(O)c2O)ccc(C(=O)O)c1O | 6.60 | – | – | 17 | –
CCCc1c(OCCCCCc2cccc(O)c2O)ccc(C(=O)O)c1O | – | – | – | – | Inhibition (Mus musculus [5]): 86%; Inhibition (Mus musculus [6]): 88%; Inhibition (Mus musculus [7]): 47%; inhibition at 10 µM (Mononuclear cell line): 40%; pIC50 (Rattus norvegicus [8]): 6.22; pIC50 (Rattus norvegicus [9]): 4.46; inhibition in vivo at 1 mg/kg (Rattus norvegicus [10]): 88%; Reduction (Rattus norvegicus [11]): 38%; Reduction (Rattus norvegicus [12]): 88%; Reduction (Rattus norvegicus [13]): 55%; Reduction (Rattus norvegicus [14]): 77%; Inhibition (Mus musculus [15]): 26%; pIC50 (Homo sapiens [16]): 6.00
CCCc1cc(C(=O)O)ccc1OCCCCCCc1cccc(O)c1O | – | 6.17 | – | – | –
CC(Cc1ccc(O)c(O)c1)C(C)Cc1ccc(O)c(O)c1 (configuration not stated) [NORDIHYDROGUAIARETIC ACID] | – | 7.00 | – | – | pIC50 (Homo sapiens [17]): 5.10; inhibition in vivo at 100 mg/kg (Rattus norvegicus [18]): 70%; inhibition (Rattus norvegicus [19]): inactive
O=C(O)c1ccc(OCCCCCCc2cccc(O)c2O)cc1O | 6.52 | – | – | 33 | inhibition in vivo at 1 mg/kg (Rattus norvegicus [10]): 95%

Second part, led by results:

pIC50 [1] | pIC50 (Rattus norvegicus [4]) | Compound | inhibition in vivo at 10 mg/kg (Rattus norvegicus [2]) [%] | inhibition (Rattus norvegicus [3]) [%] | other results
– | 6.30 | CCCc1c(OCCCCc2cccc(O)c2O)ccc(C(=O)O)c1O | 73 | – | –
7.05 | 6.52 | CCCc1c(OCCCCCCCCc2cccc(O)c2O)ccc(C(=O)O)c1O | 35 | – | –
6.77 | – | CCCc1c(OCCCc2cccc(O)c2O)ccc(C(=O)O)c1O | 54 | 35 | –
– | 6.52 | CCCc1c(OCCCCCCc2cccc(O)c2O)ccc(C(=O)O)c1O | 89 | – | –
